Source: patent publication US9364479B2, “Use of a receptor-type kinase modulator for treating polycystic kidney disease” (SYMPHONY EVOLUTION, INC., priority 2010, dated 2016)
pIC50: −log10 of the molar value. Values joined by “and” are separate entries in the source; they are usually repeats but may differ in a detail not shown here. Equal values may be shown once.

What was measured:
CYP3A4 = CYP3A4 (Homo sapiens, UniProt P08684); conditions: microsomes
KDR = KDR (Homo sapiens, UniProt P35968); assay: Cellular autophosphorylation assay; assay type: cell-based
[1] = tested on: MDA-MB-231 xenograft tumors; assay: Immunohistochemistry of MDA-MB-231 xenograft tumors (Ki67, CD31); assay type: in vivo, mouse; conditions: 100 mg/kg, relative to vehicle
Protocol: For immunohistochemical analysis of H1975, MDA-MB-231 and other xenografts, tumors were excised after euthanasia and fixed in zinc fixative (BD Biosciences) for 48 h before being processed into paraffin blocks. Serial sections at 5 μm were obtained from the area of largest possible surface for each tumor and stained using standard methods. The following antibodies were used: Ki67 (SP6; Labvision), CD31 (MECA.32; BD Biosciences), pERK^Thr202/Tyr204 (phospho-p44/42 mitogen-activated protein kinase; Cell Signaling Technology), pAKT^Ser473 (Cell Signaling Technology), and pEGFR^Tyr1068 (Cell Signaling Technology). For immunofluorescent staining, sections were then incubated with Alexa 594-conjugated goat anti-rabbit secondary antibody (Invitrogen) and mounted in Fluorescent Mounting Medium (DAKO) containing 4′,6-diamidino-2-phenylindole (Molecular Probes) as a nuclear counterstain. Fluorescent staining was visualized using a Zeiss Axiolmager and digitally captured using a Zeiss high-resolution camera coupled to AxioVision image analysis software. Two to three nonoverlapping representative fields were captured at ×200 or ×400 magnification depending on histologic readout and quantified using the integrated morphometric analysis functions in Metamorph software (Universal Imaging Corp.). Apoptotic cells were detected using terminal deoxynucleotidyl transferase-mediated dUTP nick end labeling in situ cell death detection kit according to the manufacturer's instructions (Roche Diagnostics GmbH).
CD31-positive tumor vessels, Ki67-positive proliferating cells, and pERK staining in each tumor section were identified and quantified using the integrated morphometric analysis functions in the ACIS automatic cellular imaging system (Clarient, Inc.) and reviewed by a blinded observer. Number of CD31-positive vessels were identified across 5 to 10 randomly chosen fields of equal size at ×100 magnification in viable tumor tissue and calculated as number of vessels per square millimeter for each tumor, averaged for each treatment group, and compared with vehicle-treated controls. Percentage Ki67-positive cells were calculated as the ratio between Ki67-positive cells divided by the total number of cells identified across 5 to 10 randomly chosen fields of equal size in viable tumor tissue. The results for each tumor and treatment group were averaged and compared with vehicle-treated controls. The level of pERK staining was determined as described above and calculated as the ratio of antibody staining divided by the total number of cells identified, averaged for each treatment group, and compared with vehicle-treated controls.
Tumor proliferation was measured by staining for Ki67, which […]. The degree of tumor vascularization was measured by staining with the endothelial cell marker CD31 (Table 20).

[2] = molecular target: T1, Monoamine Oxidase A, Peripheral (Rattus norvegicus, UniProt P21396); assay: NovaScreen assay; assay type: biochemical; conditions: read-out: Inhibition, 10 μM XL-647
T1 construct: NovaScreen

in vivo = conditions: for AUC(0-t) / Cmax / half-life: po; for dosing terminated because of toxicity: 2 days
Protocol: The nonclinical Pharmacokinetics (PK) of XL-647 was studied in mice, rats, dogs, and monkeys. Animals were dosed either once or daily over several days, as described in Table 21 and 22 below. A summary of results can also be found in Tables 21 and 22 below. […] Mean tmax values were approximately 4 to 8 hours, and plasma terminal half-lives ranged from 9.41 to 20.9 hours.

Sodium, Site 2 = assay: NovaScreen assay; assay type: binding

KDR, sequence (P35968 20-1356, species assumed): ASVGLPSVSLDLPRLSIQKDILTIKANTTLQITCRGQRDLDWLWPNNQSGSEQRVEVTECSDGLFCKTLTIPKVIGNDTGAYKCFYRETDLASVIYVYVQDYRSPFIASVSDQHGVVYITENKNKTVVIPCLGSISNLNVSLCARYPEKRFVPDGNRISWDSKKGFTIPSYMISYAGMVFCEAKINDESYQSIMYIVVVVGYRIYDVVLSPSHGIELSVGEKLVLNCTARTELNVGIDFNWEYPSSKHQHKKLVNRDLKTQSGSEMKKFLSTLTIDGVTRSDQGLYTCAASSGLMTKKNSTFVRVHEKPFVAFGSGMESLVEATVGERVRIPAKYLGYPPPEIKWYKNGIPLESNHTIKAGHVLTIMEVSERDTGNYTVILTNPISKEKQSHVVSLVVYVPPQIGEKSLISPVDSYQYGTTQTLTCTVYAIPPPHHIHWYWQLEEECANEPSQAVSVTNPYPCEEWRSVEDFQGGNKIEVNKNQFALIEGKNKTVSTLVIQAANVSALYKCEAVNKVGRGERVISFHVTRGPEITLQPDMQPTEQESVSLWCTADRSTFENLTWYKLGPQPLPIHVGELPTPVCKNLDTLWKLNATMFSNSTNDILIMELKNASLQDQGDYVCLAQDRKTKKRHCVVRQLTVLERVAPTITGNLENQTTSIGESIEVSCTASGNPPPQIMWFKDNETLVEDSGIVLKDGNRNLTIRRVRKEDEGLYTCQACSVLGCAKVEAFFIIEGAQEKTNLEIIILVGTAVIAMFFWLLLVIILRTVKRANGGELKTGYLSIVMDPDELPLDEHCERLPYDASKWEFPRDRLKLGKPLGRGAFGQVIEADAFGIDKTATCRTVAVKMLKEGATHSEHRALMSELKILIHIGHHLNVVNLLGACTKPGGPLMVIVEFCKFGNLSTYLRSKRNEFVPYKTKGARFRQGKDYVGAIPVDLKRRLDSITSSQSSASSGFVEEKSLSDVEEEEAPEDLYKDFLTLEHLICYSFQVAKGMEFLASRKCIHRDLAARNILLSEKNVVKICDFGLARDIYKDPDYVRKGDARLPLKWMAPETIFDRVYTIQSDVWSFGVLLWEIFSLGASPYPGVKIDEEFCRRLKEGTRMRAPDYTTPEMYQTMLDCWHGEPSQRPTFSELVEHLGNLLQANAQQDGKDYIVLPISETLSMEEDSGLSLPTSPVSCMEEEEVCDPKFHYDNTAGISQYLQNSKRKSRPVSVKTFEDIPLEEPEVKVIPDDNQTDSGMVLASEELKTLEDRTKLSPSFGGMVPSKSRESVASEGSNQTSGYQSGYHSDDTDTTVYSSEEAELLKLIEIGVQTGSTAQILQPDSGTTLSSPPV
CYP3A4, sequence (P08684 whole entry): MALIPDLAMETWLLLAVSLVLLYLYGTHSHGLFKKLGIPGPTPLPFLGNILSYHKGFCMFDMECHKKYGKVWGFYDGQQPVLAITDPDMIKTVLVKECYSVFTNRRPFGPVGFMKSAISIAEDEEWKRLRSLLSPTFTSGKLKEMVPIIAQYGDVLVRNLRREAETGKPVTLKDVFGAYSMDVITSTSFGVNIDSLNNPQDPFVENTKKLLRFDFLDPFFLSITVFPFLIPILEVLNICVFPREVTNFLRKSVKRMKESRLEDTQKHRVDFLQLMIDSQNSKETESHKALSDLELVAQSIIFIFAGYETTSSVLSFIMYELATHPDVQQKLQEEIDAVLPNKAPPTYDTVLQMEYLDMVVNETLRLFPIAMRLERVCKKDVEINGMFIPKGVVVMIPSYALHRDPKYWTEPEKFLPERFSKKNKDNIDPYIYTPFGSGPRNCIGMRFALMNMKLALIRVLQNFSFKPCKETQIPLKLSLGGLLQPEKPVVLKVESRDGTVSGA
T1 sequence (P21396 whole entry): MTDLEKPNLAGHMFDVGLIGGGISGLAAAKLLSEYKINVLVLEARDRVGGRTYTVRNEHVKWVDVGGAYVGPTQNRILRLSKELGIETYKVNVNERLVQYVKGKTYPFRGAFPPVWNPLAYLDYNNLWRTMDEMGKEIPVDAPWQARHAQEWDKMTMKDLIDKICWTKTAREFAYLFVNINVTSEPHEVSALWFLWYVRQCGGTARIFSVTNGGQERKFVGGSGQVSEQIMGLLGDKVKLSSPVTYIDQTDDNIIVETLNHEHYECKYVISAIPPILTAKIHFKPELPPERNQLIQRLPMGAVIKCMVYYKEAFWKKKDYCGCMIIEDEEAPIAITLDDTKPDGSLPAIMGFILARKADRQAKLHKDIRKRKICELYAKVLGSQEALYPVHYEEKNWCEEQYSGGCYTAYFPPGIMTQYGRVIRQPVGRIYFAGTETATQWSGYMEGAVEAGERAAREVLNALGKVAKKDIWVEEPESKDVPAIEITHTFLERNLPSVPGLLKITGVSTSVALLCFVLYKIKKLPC

With `COc1cc2c(Nc3ccc(Cl)c(Cl)c3F)ncnc2cc1OC[C@@H]1C[C@@H]2CN(C)C[C@@H]2C1` [XL-647, N-(3,4-dichloro-2-fluorophenyl)-7-({[(3aR,5r,6aS)-2-methyloctahydrocyclopenta[c]pyrrol-5-yl]methyl}oxy)-6-(methyloxy)quinazolin-4-amine] the “CYP3A4 substrate, in words” value (CYP3A4) was “substrate for CYP3A4-mediated metabolism”, the pIC50 (KDR) was 6.86 and the “CD31 (% Reduction)” value ([1]; 3 days) was 76% and 76.5%. For the same compound, the “Ki67 (% Reduction)” value ([1]; 3 days) was 9.62%, the “CD31 (% Reduction)” value ([1]; 5 days) was 90.18% and the “Ki67 (% Reduction)” value ([1]; 5 days) was 33.8%. For the same compound, the “CD31 (% Reduction)” value ([1]; 7 days) was 95.7%, the “Ki67 (% Reduction)” value ([1]; 7 days) was 50% and 48.7% and the inhibition at 10 µM [2] was 1.66%. For the same compound, the AUC(0-t) (in vivo; female, dog, 100 mg/kg) was 21200 ng·h/mL, the Cmax (in vivo; female, dog, 100 mg/kg) was 1100 ng/mL and the half-life (in vivo; female, dog, 100 mg/kg) was 14.2 h. The AUC(0-t) (in vivo; female, dog, 300 mg/kg) was 17100 ng·h/mL, the Cmax (in vivo; female, dog, 300 mg/kg) was 1610 ng/mL and the half-life (in vivo; female, dog, 300 mg/kg) was 12.1 h. The AUC(0-t) (in vivo; female, dog, 1000 mg/kg) was 34200 ng·h/mL, the Cmax (in vivo; female, dog, 1000 mg/kg) was 5090 ng/mL and the half-life (in vivo; female, dog, 1000 mg/kg) was 16.1 h. The AUC(0-t) (in vivo; female, monkey, 2 mg/kg) was 450 ng·h/mL, the Cmax (in vivo; female, monkey, 2 mg/kg) was 38 ng/mL and the AUC(0-t) (in vivo; female, monkey, 6 mg/kg) was 1690 ng·h/mL. It also gave a Cmax (in vivo; female, monkey, 6 mg/kg) of 116 ng/mL, an AUC(0-t) (in vivo; female, monkey, 10 mg/kg) of 4270 ng·h/mL and a Cmax (in vivo; female, monkey, 10 mg/kg) of 216 ng/mL. For the same compound, the half-life (in vivo; female, monkey, 10 mg/kg) was 14.9 h, the AUC(0-t) (in vivo; female, monkey, 20 mg/kg) was 3910 ng·h/mL and the Cmax (in vivo; female, monkey, 20 mg/kg) was 202 ng/mL. The half-life (in vivo; female, monkey, 50 mg/kg) was 14.8 h, the AUC(0-t) (in vivo; female, monkey, 100 mg/kg) was 28000 ng·h/mL and the Cmax (in vivo; female, monkey, 100 mg/kg) was 2160 ng/mL. It also gave a half-life (in vivo; female, monkey, 100 mg/kg) of 11.6 h, an AUC(0-t) (in vivo; female, monkey, 150 mg/kg) of 7030 ng·h/mL and a Cmax (in vivo; female, monkey, 150 mg/kg) of 379 ng/mL. The half-life (in vivo; female, monkey, 150 mg/kg) was 20.4 h, the AUC(0-t) (in vivo; male, dog, 100 mg/kg) was 8970 ng·h/mL and the Cmax (in vivo; male, dog, 100 mg/kg) was 407 ng/mL. For the same compound, the half-life (in vivo; male, dog, 100 mg/kg) was 10.4 h, the AUC(0-t) (in vivo; male, dog, 300 mg/kg) was 7790 ng·h/mL and the Cmax (in vivo; male, dog, 300 mg/kg) was 936 ng/mL. The half-life (in vivo; male, dog, 300 mg/kg) was 12.7 h, the AUC(0-t) (in vivo; male, dog, 1000 mg/kg) was 27300 ng·h/mL and the Cmax (in vivo; male, dog, 1000 mg/kg) was 3770 ng/mL. For the same compound, the half-life (in vivo; male, dog, 1000 mg/kg) was 13.2 h, the AUC(0-t) (in vivo; male, monkey, 2 mg/kg) was 488 ng·h/mL and the Cmax (in vivo; male, monkey, 2 mg/kg) was 28.4 ng/mL. For the same compound, the AUC(0-t) (in vivo; male, monkey, 6 mg/kg) was 1860 ng·h/mL, the Cmax (in vivo; male, monkey, 6 mg/kg) was 106 ng/mL and the AUC(0-t) (in vivo; male, monkey, 10 mg/kg) was 3630 ng·h/mL. The Cmax (in vivo; male, monkey, 10 mg/kg) was 230 ng/mL, the half-life (in vivo; male, monkey, 10 mg/kg) was 14.7 h and the AUC(0-t) (in vivo; male, monkey, 20 mg/kg) was 3900 ng·h/mL. The Cmax (in vivo; male, monkey, 20 mg/kg) was 194 ng/mL, the half-life (in vivo; male, monkey, 50 mg/kg) was 20.5 h and the AUC(0-t) (in vivo; male, monkey, 100 mg/kg) was 19600 ng·h/mL. It also gave a Cmax (in vivo; male, monkey, 100 mg/kg) of 1220 ng/mL, a half-life (in vivo; male, monkey, 100 mg/kg) of 20.7 h and an AUC(0-t) (in vivo; male, monkey, 150 mg/kg) of 14500 ng·h/mL. For the same compound, the Cmax (in vivo; male, monkey, 150 mg/kg) was 737 ng/mL, the half-life (in vivo; male, monkey, 150 mg/kg) was 19.8 h and the “dosing terminated because of toxicity observed on Days 6 and 7” value (in vivo; monkey, 20 mg/kg) was “then terminated because”. The “dosing terminated because of toxicity” value (in vivo; monkey, 50 mg/kg) was “bid × 2, then terminated”, the “dosing terminated because of toxicity” value (in vivo; monkey, 100 mg/kg) was “qd × 2, then terminated” and the “dosing terminated because of toxicity” value (in vivo; monkey, 300 mg/kg) was “qd × 2, then terminated”. For the same compound, the AUC(0-t) (in vivo; rat, 1 mg/kg) was 198 ng·h/mL, the Cmax (in vivo; rat, 1 mg/kg) was 12.7 ng/mL and the half-life (in vivo; rat, 1 mg/kg) was 14.4 h. For the same compound, the AUC(0-t) (in vivo; rat, 3 mg/kg) was 776 ng·h/mL, the Cmax (in vivo; rat, 3 mg/kg) was 50.4 ng/mL and the half-life (in vivo; rat, 3 mg/kg) was 20.4 h. For the same compound, the AUC(0-t) (in vivo; rat, 30 mg/kg) was 5740 ng·h/mL, the Cmax (in vivo; rat, 30 mg/kg) was 319 ng/mL and the half-life (in vivo; rat, 30 mg/kg) was 20.4 h. For the same compound, the AUC(0-t) (in vivo; rat, 100 mg/kg) was 18300 ng·h/mL, the Cmax (in vivo; rat, 100 mg/kg) was 909 ng/mL and the AUC(0-t) (in vivo; rat, 200 mg/kg) was 29500 ng·h/mL. It also gave a Cmax (in vivo; rat, 200 mg/kg) of 1000 ng/mL, an AUC(0-t) (in vivo; rat, 600 mg/kg) of 41200 ng·h/mL and a Cmax (in vivo; rat, 600 mg/kg) of 1330 ng/mL. For the same compound, the AUC(0-t) (in vivo; rat, 2000 mg/kg) was 53000 ng·h/mL, the Cmax (in vivo; rat, 2000 mg/kg) was 1690 ng/mL and the “Inhibition, 10 μM XL-647” value (Sodium, Site 2) was 88.06%.
